Drawing on ChEMBL document CHEMBL1131687, “Dienyl diketones as anticancer agents: synthesis and biological evaluation of some aromatic derivatives” (1999), this text covers CC50 for six compounds.

Converted amounts (≈) assume the structure as drawn. Where only a bound is given, the exact number is not on record here.

What all share (assay type): functional
Assay [1] is described as follows: In vitro cytotoxicity against the growth of Colon-205 cancer cell line. The conditions noted are these: Homo sapiens, Cancer cell lines; read-out: LD50 (the source's name).
The test system of another assay is HEp-2. The assay can be described thus: In vitro cytotoxicity against the growth of Hep-2 cell line. The conditions noted are these: Homo sapiens, read-out: LD50 (the source's name).
For the next assay, the system named is HeLa. The assay is described as follows: In vitro cytotoxicity against the growth of HeLa-cell line. The conditions noted are these: Homo sapiens, read-out: LD50 (the source's name).
In another assay the test system is KB 3-1. The assay is described as follows: In vitro cytotoxicity against the growth of KB-cell line. Conditions: Homo sapiens, read-out: LD50 (the source's name).

With `CCC(=O)/C=C\C=C\C(=O)c1ccccc1`, the CC50 was 1 mg/L (≈ 4.67 µM) in assay [1], more than 10 mg/L in the assay with HEp-2, more than 10 mg/L in the assay on HeLa and more than 10 mg/L in the assay on KB 3-1.

In the case of `CCC(=O)/C=C/C=C\C(C)=O`, the CC50 (in assay [1]; in the assay on HEp-2; with HeLa; with KB 3-1) was more than 10 mg/L throughout.

Consider `CC(=O)/C=C\C=C\C(=O)c1ccccc1`, for which the CC50 in assay [1] is 1 mg/L (≈ 4.99 µM); in the assay on HEp-2 it was more than 10 mg/L; in the assay with HeLa, more than 10 mg/L; in the assay with KB 3-1, 0.8 mg/L (≈ 4 µM).

For the compound `CCCCCCC(=O)/C=C\C=C\C(=O)c1ccc(C(=O)OC)cc1`, the CC50 was 0.8 mg/L (≈ 2.44 µM) in assay [1], more than 10 mg/L with HEp-2, more than 10 mg/L with HeLa and more than 10 mg/L with KB 3-1.

As to `CCCCCCC(=O)/C=C/C=C/C(=O)c1ccc(C(=O)OC)cc1`, the CC50 (in assay [1]; with HEp-2; with HeLa; in the assay on KB 3-1) was more than 10 mg/L throughout.

Consider `CCC(=O)/C=C/C=C\C(=O)CC(C)C`, for which the CC50 (in assay [1]; in the assay on HEp-2; in the assay on HeLa; in the assay with KB 3-1) was more than 10 mg/L each time.
